What all share (assay type): physicochemical
Data set [1] in a line: Emission (fluorescence) spectrum and fluorescence quantum yield of material-containing resin film (Quantaurus-QY C11347).
Data set [2] is described as follows: Eluting test of the material from the material-containing film (ISO10993-10 Annex E, methanol extraction). Here is the method:
In Example 1, the operation was performed in the same manner as in Example 1 except that 100 mg of the near infrared fluorescent material A was used, a material-containing TPU film having a thickness of about 300 μm and having a material concentration of the near infrared fluorescent material A of 0.1% by mass was prepared.
An Eluting test of the obtained material-containing TPU film was performed. The eluting operation of the film was performed as follows according to ISO10993-10AnnexE. 5 g of the material-containing TPU film was cut into a size of 2 cm×2 cm, and then was put into a 300 mL conical flask with 100 mL of methanol, followed by shaking at 25° C. of room temperature for 8 hours. Next, the methanol was separated by filtration once, and the resultant product was extracted two times with the same amount of methanol by using the same film fine piece. The methanol extracted liquid obtained by the total three times of operations was concentrated by an evaporator, and the residues were melted with 5 mL of dichloromethane to obtain a test liquid.
The absorption spectrum and the light emission spectrum of the obtained test liquid were measured. As a result, the absorption and the fluorescent derived from the near infrared fluorescent material A could not be confirmed. […] Since the near infrared fluorescent material A was hardly eluted, a medical implant having high safeness which is molded using the resin composition according to the present invention was obtained.

A short description of data set [3]: Absorption spectrum of material-containing resin film (spectrophotometer UV3600). The method, then: TPU pellets (Tecoflex EG85A, manufactured by Lubrizol Corp.) (100 g) and a near infrared fluorescent material A (5 mg) synthesized in Preparation Example 1 were mixed, and the mixture was attached to the pellet surfaces.
Next, the pellets were put into Labo Plastomill, and melt-kneaded (kneading) at a set temperature of 190° C. for 10 minutes. Thereafter, the kneaded material-containing resin was taken out, and made to be a film.
The film was obtained in the following manner. First, the material-containing resin was heated for 5 minutes while being sandwiched between iron plates heated to 200° C., and pressed at […] while the steel plates were cooled. […]

Assay in data set [4]: as above
The conditions noted are these: PP film, material 10 mg per 100 g PP (Example 2).

The mark [5] stands for this setting: TPU film, material 0.1% by mass, about 300 μm, methanol, 25° C., 8 hours, three extractions.
The mark [6] stands for this setting: methanol extract of TPU film, residues in dichloromethane.
[7] abbreviates: PP film, material 10 mg per 100 g PP (Example 2).
[8] abbreviates: TPU film, material 5 mg per 100 g TPU (0.005% by mass), melt-kneaded at 190° C.

The structures appear in SMILES notation. Values joined by “and” are separate entries in the source; they are usually repeats but may differ in a detail not shown here. Equal values may be shown once. “Also recorded” adds a separate entry of the source. Read-outs that look alike come from different tables or passages of the source.

On to `CCCCC(CC)COc1ccc(-c2c3c4n(c(-c5ccc(OCC(CC)CCCC)cc5)c3c3n2[B-](c2ccccc2)(c2ccccc2)[n+]2c(oc5ccc(C(C)(C)C)cc52)C=3C#N)[B-](c2ccccc2)(c2ccccc2)[n+]2c(oc3ccc(C(C)(C)C)cc32)C=4C#N)cc1` (stereo not shown) [near infrared fluorescent material H], for which, in data set [1], the Fluorescence peak was 787 nm and 865 nm; the Quantum yield is given as 36%. Further, the “Presence or absence of material elution” value in data set [2] is “not eluted; also recorded: Absence”. For the same compound, in data set [3], the Absorption peak stood at 744 nm.

Take `COc1ccc(-c2cc3c(s2)=CC2=C(C(F)(F)F)c4cc5sc(-c6ccc(OC)cc6)cc5n4[B-](F)(F)[N+]=32)cc1` [near infrared fluorescent material D]: in data set [1], the Fluorescence peak came out at 765 nm and the Quantum yield was 17%. For the same compound, the “Presence or absence of material elution” value in data set [2] is reported as “not eluted; also recorded: Absence”. This compound yielded an Absorption peak in data set [3] of 737 nm.

Regarding `CCCCCCCCOc1ccc(-c2c3c4n(c(-c5ccc(OCCCCCCCC)cc5)c3c3n2[B-](F)(F)[n+]2c(ccc5cc(C(C)(C)C)ccc52)C=3C#N)[B-](F)(F)[n+]2c(ccc3cc(C(C)(C)C)ccc32)C=4C#N)cc1` [near infrared fluorescent material F], in data set [1], the Fluorescence peak was 774 nm and 870 nm; the Quantum yield was found to be 35%. Also, the “Presence or absence of material elution” value in data set [2] is “not eluted; also recorded: Absence”. Besides, the Absorption peak in data set [3] was 764 nm and 767 nm.

For `CCN1/C(=C\C=C2/CCC(/C=C/c3sc4ccc(Cl)cc4[n+]3CC)=C2N(c2ccccc2)c2ccccc2)Sc2ccc(Cl)cc21` [IR-140, reference compound], in data set [2] (setting [5]), the “Presence or absence of material elution” value is “eluted; also recorded: Presence”. Also, the “Presence or absence of material elution” value in data set [2] (TPU film, material 0.1% by mass, about 300 μm, methanol, 25° C., 8 hours, three extractions, listed as Comparative Example 1) is listed as “elutes”. For the same compound, in data set [2] (setting [6]), the “light emission peak wavelength of the fluorescence spectrum in the test liquid of the eluting test” value amounted to 846 nm and the “peak wavelength of the absorption spectrum in the test liquid of the eluting test” value was found to be 812 nm.

As for `CCCCCCCCOc1ccc(-c2c3c4n(c(-c5ccc(OCCCCCCCC)cc5)c3c3n2[B-](F)(F)[n+]2c(sc5cc(C(C)(C)C)ccc52)C=3C#N)[B-](F)(F)[n+]2c(sc3cc(C(C)(C)C)ccc32)C=4C#N)cc1` [near infrared fluorescent material B], in data set [1], the Fluorescence peak was 758 nm and 833 nm and 756 nm and 834 nm and 753 nm and 754 am nm and 751 nm and 825 nm; the Quantum yield is 36% and 34% and 39% and 46%. In addition, the “Presence or absence of material elution” value in data set [2] is given as “not eluted; also recorded: Absence”. Moreover, in data set [3], the Absorption peak is 739 nm and 738 nm and 737 nm and 736 nm.

On to `CCCCCCCCOc1ccc(-c2c3c4n(c(-c5ccc(OCCCCCCCC)cc5)c3c3n2[B-](c2ccccc2)(c2ccccc2)[n+]2c(C)cc(C)nc2C=3C#N)[B-](c2ccccc2)(c2ccccc2)[n+]2c(C)cc(C)nc2C=4C#N)cc1` [near infrared fluorescent material G], for which, in data set [1], the Fluorescence peak is 778 nm and 870 nm; the Quantum yield is 35%. Moreover, the “Presence or absence of material elution” value in data set [2] is “not eluted; also recorded: Absence”. Also, in data set [3], the Absorption peak stood at 756 nm.

In the case of `COc1ccc(-c2cc3c(o2)=CC2=C(C(F)(F)F)c4cc5oc(-c6ccc(OC)cc6)cc5n4[B-](F)(F)[N+]=32)cc1` [near infrared fluorescent material A], the Fluorescence peak in data set [1] (setting [7]) is recorded as 810 nm. In addition, the Quantum yield in data set [1] (setting [7]) was 24%; in data set [1] (setting [8]), 26%. Also, the “Presence or absence of material elution” value in data set [2] (setting [5]) is “hardly eluted; also recorded: Absence”. The Absorption peak in data set [4] and in data set [3] (setting [8]) was 730 nm each time.

On to `F[B-]1(F)n2c(cc3sc(-c4cccs4)cc32)C(C(F)(F)F)=C2C=c3sc(-c4cccs4)cc3=[N+]21` [near infrared fluorescent material E], for which, in data set [1] (setting [8]), the Fluorescence peak is 772 nm and the Quantum yield is given as 11%. Moreover, the “Presence or absence of material elution” value in data set [2] (setting [5]) is listed as “not eluted; also recorded: Absence”. In data set [3] (setting [8]), this compound yielded an Absorption peak of 741 nm.

Source of the values: patent publication US20210030895A1, “RESIN COMPOSITION AND MOLDED ARTICLE” (DIC Corporation, priority 2013, published 2021).
